Laboratory results as given in PMC7600710, “The Inhibition of Serine/Threonine Protein Phosphatase Type 5 Mediates Cantharidin Toxicity to Control Periplaneta americana (L.)” (Insects, 2020).

Experiments:
[1] = target: T1, serine/threonine protein phosphatase type 5 (PaPP5), catalytic domain PaPP5c (Periplaneta americana, UniProt A0A3Q9NNI4); assay: DiFMUP fluorescence phosphatase inhibition assay on purified recombinant PaPP5c; type: biochemical
T1 construct: gene PP5; catalytic domain of PP5 (167-489 amino acids, PP5c), His-tagged, expressed in E. coli; full-length GenBank AZT88974.1
T1 sequence (A0A3Q9NNI4 167-489): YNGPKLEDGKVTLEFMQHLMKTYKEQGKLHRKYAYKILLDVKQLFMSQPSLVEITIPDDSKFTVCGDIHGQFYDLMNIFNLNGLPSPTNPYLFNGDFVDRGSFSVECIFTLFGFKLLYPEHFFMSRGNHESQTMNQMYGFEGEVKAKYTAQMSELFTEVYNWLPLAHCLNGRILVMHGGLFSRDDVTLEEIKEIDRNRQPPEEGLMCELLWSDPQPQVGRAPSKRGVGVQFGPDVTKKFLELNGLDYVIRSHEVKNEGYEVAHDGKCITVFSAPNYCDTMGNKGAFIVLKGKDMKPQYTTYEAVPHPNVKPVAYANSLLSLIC

purified protein = substrate: Cc1cc(=O)oc2c(F)c(OP(=O)(O)O)c(F)cc12; assay: purified protein; conditions: Mn2+ (MnCl2 in expression, dialysis and assay buffer)

O=C1OC(=O)[C@H]2[C@@H]1[C@@H]1CC[C@H]2O1 [Norcantharidin]
IC50 [1]: 1870 ± 230 nM

C[C@@]12C(=O)OC(=O)[C@]1(C)[C@H]1CC[C@@H]2O1 [Cantharidin]
IC50 [1]: 390 ± 40 nM

B1: serine/threonine protein phosphatase type 5 (PaPP5), catalytic domain PaPP5c (Periplaneta americana) (protein)
chain: YNGPKLEDGKVTLEFMQHLMKTYKEQGKLHRKYAYKILLDVKQLFMSQPSLVEITIPDDSKFTVCGDIHGQFYDLMNIFNLNGLPSPTNPYLFNGDFVDRGSFSVECIFTLFGFKLLYPEHFFMSRGNHESQTMNQMYGFEGEVKAKYTAQMSELFTEVYNWLPLAHCLNGRILVMHGGLFSRDDVTLEEIKEIDRNRQPPEEGLMCELLWSDPQPQVGRAPSKRGVGVQFGPDVTKKFLELNGLDYVIRSHEVKNEGYEVAHDGKCITVFSAPNYCDTMGNKGAFIVLKGKDMKPQYTTYEAVPHPNVKPVAYANSLLSLIC
Km (purified protein): 144.10 ± 9.730 µM
